Experimental data: US6716858B1, “Methods for inhibiting diabetic complications” (Kansas University Medical Center, priority 1995, dated 2004)

Legend:
[1] = tested on: AGE formation in bovine serum albumin (BSA); experiment: Uninterrupted glycation of BSA with glucose, anti-AGE ELISA; type: biochemical; settings: BSA 10 mg/ml, 1.0 M glucose, pH 7.5, 37° C., 6 weeks; inhibitors 3, 15 and 50 mM
Method: (§1) Uninterrupted Glycation with Glucose Bovine serum albumin, ribonuclease A, and human hemoglobin were incubated with glucose at 37° C. in 0.4 M sodium phosphate buffer of pH 7.5 containing 0.02% sodium azide. The protein, glucose (at 1.0 M), and prospective inhibitors (at 0.5, 3, 15 and 50 mM) were introduced into the incubation mixture simultaneously. Solutions were kept in the dark in capped tubes. Aliquots were taken and immediately frozen until analyzed by ELISA at the conclusion of the reaction. The incubations were for 3 weeks (Hb) or 6 weeks (RNase, BSA).
(§2) ELISA detection of AGE products. The general method of Engvall (1981, Methods Enzymol. 70:419-439) was used to perform the ELISA. Typically, glycated protein samples were diluted to approximately 1.5 ug/ml in 0.1 M sodium carbonate buffer of pH 9.5 to 9.7. The protein was coated overnight at room temperature onto 96-well polystyrene plates by pippetting 200 ul of the protein solution in each well (0.3 ug/well). After coating, the protein was washed from the wells with a saline solution containing 0.05% Tween-20. The wells were then blocked with 200 ul of 1% casein in carbonate buffer for 2 h at 37° C. followed by washing. Rabbit anti-AGE antibodies were diluted at a titer of about 1:350 in incubation buffer, and incubated for 1 h at 37° C., followed by washing. In order to minimize background readings, antibodies R479 used to detect glycated RNase were raised against glycated BSA, and antibodies R618 used to detect glycated BSA and glycated Hb were raised against glycated RNase. An alkaline phosphatase-conjugated antibody to rabbit IgG was then added as the secondary antibody at a titer of 1:2000 or 1:2500 (depending on lot) and incubated for 1 h at 37° C., followed by washing. The p-nitrophenylphosphate substrate solution was then added (200 ul/well) to the plates, with the absorbance of the released p-nitrophenolate being monitored at 410 nm with a Dynatech MR 4000 microplate reader.
FIGS. 1 A-D are graphs which show the effect of vitamin B6 derivatives on post-Amadori AGE formation in bovine serum albumin glycated with glucose. BSA (10 mg/ml) was incubated with 1.0 M glucose in the presence and absence of the various indicated derivative in 0.4 M sodium phosphate buffer of pH 7.5 at 37° C. for 6 weeks. Aliquots were assayed by ELISA using R618 anti-AGE antibodies. Concentrations of the inhibitors were 3, 15 and 50 mM. Inhibitors used in FIGS. (1A) Pyridoxamine (PM); (1B) pyridoxal phosphate (PLP); (1C) pyridoxal (PL); (1D) pyridoxine (PN).
FIGS. 2A-D are graphs which show the effect of vitamin B1 derivatives and aminoguanidine (AG) on AGE formation in bovine serum albumin. BSA (10 mg/ml) was incubated with 1.0 M glucose in the presence and absence of the various indicated derivative in 0.4 M sodium phosphate buffer of pH 7.5 at 37° C. for 6 weeks. Aliquots were assayed by ELISA using R618 anti-AGE antibodies. Concentrations of the inhibitors were 3, 15 and 50 mM. Inhibitors used in FIGS. (2A) Thiamine pyrophosphate (TPP); (2B) thiamine monophosphate (TP); (2C) thiamine (T); (2D) aminoguanidine (AG).

[2] = tested on: post-Amadori AGE formation, BSA Amadori intermediate; experiment: Interrupted (post-Amadori) ribose glycation assay, BSA; type: biochemical, bovine; settings: 24 h in 0.5 M ribose, then free ribose removed, 37° C.
Method: as §2
Glycation was first carried out by incubating protein (10 mg/ml) with 0.5 M ribose at 37° C. in 0.4 M phosphate buffer at pH 7.5 containing 0.2% sodium azide for 24 h in the absence of inhibitors. Glycation was then interrupted to remove excess and reversibly bound (Schiff base) sugar by extensive dialysis against frequent cold buffer changes at 4° C. The glycated intermediate samples containing maximal amount of Amadori product and little AGE (depending on protein) were then quickly warmed to 37° C. without re-addition of ribose. This initiated conversion of Amadori intermediates to AGE products in the absence or presence of various concentrations (typically 3, 15 and 50 mM) of prospective inhibitors. Aliquots were taken and frozen at various intervals for later analysis. The solutions were kept in capped tubes and opened only to remove timed aliquots that were immediately frozen for later carrying out the various analyses.

[3] = tested on: AGE formation during uninterrupted glycation of bovine serum albumin (BSA) by ribose; experiment: Uninterrupted ribose glycation assay, BSA; type: biochemical; settings: 0.05 M ribose, 6 weeks, inhibitors 0.5-50 mM
Method: as §2
as §1, with “ribose glycation assays” for “Glycation with Glucose”, “ribose” for “glucose”, “protein (10 mg/ml or 1 mg/ml), 0.05 M ribose,” for “protein, glucose (at 1.0 M),”, “BSA). Glycation reactions were monitored for constant pH throughout the duration of the experiments.” for “BSA).”

[4] = tested on: AGE formation during uninterrupted glycation of ribonuclease A (RNase A) by ribose; experiment: Uninterrupted ribose glycation assay, RNase; type: biochemical, bovine; settings: continuous 0.05 M ribose, 6 weeks, inhibitors 0.5-50 mM
Method: as §2
as §1, with “ribose glycation assays” for “Glycation with Glucose”, “ribose” for “glucose”, “protein (10 mg/ml or 1 mg/ml), 0.05 M ribose,” for “protein, glucose (at 1.0 M),”, “BSA). Glycation reactions were monitored for constant pH throughout the duration of the experiments.” for “BSA).”
The inhibitory effects of vitamin B1 and B6 derivatives on the kinetics of antigenic AGE formation were evaluated by polyclonal antibodies specific for AGEs. Initial inhibition studies were carried out on the glycation of bovine ribonuclease A (RNase) in the continuous presence of 0.05 M ribose, which is the concentration of ribose where the rate of AGE formation is near maximal.

[5] = tested on: post-Amadori AGE formation, RNase Amadori intermediate; experiment: Interrupted (post-Amadori) ribose glycation assay, RNase; type: biochemical, bovine; settings: RNase, 24 h in 0.5 M ribose, then free ribose removed, 37° C.
Method: as §2
Glycation Modifications Modification with ribose or glucose was generally done at 37° C. in 0.4 M phosphate buffer of pH 7.5 containing 0.02% sodium azide. The high buffer concentration was always used with 0.5 M ribose modifications. The solutions were kept in capped tubes and opened only to remove timed aliquots that were immediately frozen for later carrying out the various analyses. “Interrupted glycation” experiments were carried out by first incubating protein with the ribose at 37° C. for 8 or 24 h, followed by immediate and extensive dialysis against frequent cold buffer changes at 4° C. The samples were then reincubated by quickly warming to 37° C. in the absence of external ribose. Aliquots were taken and frozen at various intervals for later analysis. Due to the low molecular weight of RNase, protein concentrations were remeasured after dialysis even when low molecular weight cut-off dialysis tubing was used. An alternative procedure was also devised (see below) in which interruption was achieved by simple 100-fold dilution from reaction mixtures containing 0.5 M ribose. Protein concentrations were estimated from UV spectra. The difference in molar extinction between the peak (278 nm) and trough (250 nm) was used for RNase concentration determinations in order to compensate for the general increase in UV absorbance that accompanies glycation. Time-dependent UV-difference spectral studies were carried out to characterize the glycation contributions of the UV spectrum. […]
Glycation was first carried out by incubating protein (10 mg/ml) with 0.5 M ribose at 37° C. in 0.4 M phosphate buffer at pH 7.5 containing 0.2% sodium azide for 24 h in the absence of inhibitors. Glycation was then interrupted to remove excess and reversibly bound (Schiff base) sugar by extensive dialysis against frequent cold buffer changes at 4° C.

ribose-treated rats = experiment: Ribose rat model, intervention by compounds (Phase III); type: in vivo; settings: 1 M ribose alone, 8 days
Method: Sixty rats were randomized into 9 different groups, including those exposed to 1 M ribose for 8 days in the presence and absence of aminoguanidine, pyridoxamine, and thiamine pyrophosphate as follows:
(ii) high dose (250 mg/kg body weight) of pyridoxamine (“compound-P”);
(iii) high dose (250 mg/kg body weight of thiamine pyrophosphate (“compound-T” or “TPP”); and
(iv) low dose (25 mg/kg body weight) of aminoguanidine (“AG”).
(i) only 1 M ribose-saline (2×9 cc daily IP for 8 days);
(ii) ribose plus low dose (“LP”) of pyridoxamine (25 mg/kg body weight injected as 0.5 ml with 9 cc ribose);
(iii) ribose plus high dose (“HP”) of pyridoxamine (250 mg/kg body weight injected as 0.5 ml with 9 cc ribose);
(iv) ribose plus high dose (“HT”) of thiamine pyrophosphate (250 mg/kg body weight injected as 0.5 ml with 9 cc ribose); and
(v) ribose plus low dose of amino guanidine (25 mg/kg body weight injected as 0.5 ml with 9 cc ribose).
Unlike Phase II, no ribose was administered in drinking water. Intervention compounds were pre-administered for one day prior to introducing them with ribose.

rats = experiment: Ribose administration to rats (Phase I and II), renal physiology; type: in vivo, rat
Method: Two groups of six rats each were given in one day either:
a. 300 mM ribose (two intraperitoneal infusions 6-8 hours apart, each 5% of body weight as ml); or
b. 50 mM ribose (one infusion)
Rats were then kept for 4 days with no further ribose administration, at which time they were sacrificed and the following physiological measurements were determined: (i) initial and final body weight; (ii) final stage kidney weight; (iii) initial and final tail-cuff blood pressure; (iv) creatinine clearance per 100 g body weight.
Groups of rats (3-6) were intraperitoneally given 0.3 M “low ribose dose” (LR) or 1.0 M “high ribose dose” (HR) by twice-daily injections for either (i) 1 day, (ii) a “short-term” (S) of 4 days, or (iii) a “long-term” (L) of 8 days. Additionally, these concentrations of ribose were included in drinking water.

[6] = Phase II: 0.3 M or 1.0 M ribose for 1, 4 or 8 days

Row | SMILES | inhibition of post-Amadori AGE formation [5] | Albumin effusion rate (AER) (ribose-treated rats) | creatinine clearance (rats; high ribose (2×300 mM), normal range expected about 1.0-1.2) [cc per 100 g body weight] | creatinine clearance (rats; low ribose (1×50 mM), normal range expected about 1.0-1.2) [cc per 100 g body weight] | inhibition of antigenic AGE formation (ELISA) [1] | inhibition of post-Amadori AGE formation [2] | inhibition of overall kinetics of AGE formation from ribose [3] | inhibition of overall kinetics of AGE formation from ribose [4] | Albumin effusion rate (AER) (rats; [6]) | creatinine clearance (rats; [6]) | tail-cuff blood pressure (rats; Phase II: 0.3 M or 1.0 M ribose twice daily IP for 1, 4 or 8 days, also in drinking water) | tail-cuff blood pressure (rats; high ribose (2×300 mM) in one day, measured 4 days later, from 66±4) | tail-cuff blood pressure (rats; low ribose (1×50 mM) in one day, measured 4 days later, from 66±4)
1 | Cc1ncc(CO)c(CO)c1O [pyridoxine] | – | – | – | – | slightly effective at the highest concentrations tested | did not produce any inhibition | failed to inhibit AGE formation on BSA | moderately inhibited AGE formation on RNase | – | – | – | – | –
2 | Cc1ncc(COP(=O)(O)O)c(C=O)c1O [pyridoxal phosphate, pyridoxal-5′-phosphate] | showed significant inhibition at 15 mM | – | – | – | strongly suppressed antigenic AGE formation at even the lowest concentrations tested | – | mostly inhibited the rate of AGE formation, but not the final levels of AGE formed | significantly inhibited the rate of AGE formation on RNase at concentrations of 50 mM and 15 mM | – | – | – | – | –
3 | Cc1ncc(CO)c(C=O)c1O [pyridoxal] | did not show any significant inhibition at 15 mM | – | – | – | effective above 15 mM | – | mostly inhibited the rate of AGE formation, but not the final levels of AGE formed | significantly inhibited the rate of AGE formation on RNase at concentrations of 50 mM and 15 mM | – | – | – | – | –
4 | O=C[C@H](O)[C@H](O)[C@H](O)CO [ribose] | diminished by increasing ribose concentrations | elevated | 0.62±0.13 | 0.87±0.15 | – | – | – | – | increased significantly in a ribose-dependent manner at 1-day and 4-day exposures | decreased in all groups in a ribose dose-dependent and time-dependent manner | increased in all groups of ribose-treated rats | 106±5 | 83±3

More lines, main results first:

Row | inhibition of post-Amadori AGE formation [5] | Albumin effusion rate (AER) (ribose-treated rats) | creatinine clearance (rats; high ribose (2×300 mM), normal range expected about 1.0-1.2) [cc per 100 g body weight] | creatinine clearance (rats; low ribose (1×50 mM), normal range expected about 1.0-1.2) [cc per 100 g body weight] | SMILES | inhibition of antigenic AGE formation (ELISA) [1] | inhibition of post-Amadori AGE formation [2] | inhibition of overall kinetics of AGE formation from ribose [3] | inhibition of overall kinetics of AGE formation from ribose [4] | Albumin effusion rate (AER) (rats; [6]) | creatinine clearance (rats; [6]) | tail-cuff blood pressure (rats; Phase II: 0.3 M or 1.0 M ribose twice daily IP for 1, 4 or 8 days, also in drinking water) | tail-cuff blood pressure (rats; high ribose (2×300 mM) in one day, measured 4 days later, from 66±4) | tail-cuff blood pressure (rats; low ribose (1×50 mM) in one day, measured 4 days later, from 66±4)
5 | showed some intermediate effect | – | – | – | Cc1ncc(C[n+]2csc(CCOP(=O)(O)O)c2C)c(N)n1 [thiamine monophosphate] | not inhibitory | showed some intermediate effect | – | little effect on the rate of AGE formation, but a substantial decrease in the final level of AGE formed in the presence of the highest concentration of inhibitor | – | – | – | – | –
6 | showed no effect | – | – | – | Cc1ncc(C[n+]2csc(CCO)c2C)c(N)n1 [thiamine] | not inhibitory | showed no effect | inhibited the final levels of AGEs formed, without greatly affecting the rate of AGE formation | little effect on the rate of AGE formation, but a substantial decrease in the final level of AGE formed in the presence of the highest concentration of inhibitor | – | – | – | – | –
